Measured values as given in ChEMBL document CHEMBL3751787, “Novel chromenedione derivatives displaying inhibition of protein tyrosine phosphatase 1B (PTP1B) from Flemingia philippinensis” (Bioorg Med Chem Lett, 2016).

Columns and labels:
[1] = molecular target: T1, Tyrosine-protein phosphatase non-receptor type 1 (Homo sapiens, UniProt P18031); test: Inhibition of human recombinant PTP1B using p-nitrophenyl phosphate as substrate by spectrophotometric analysis
T1 sequence (P18031 whole entry): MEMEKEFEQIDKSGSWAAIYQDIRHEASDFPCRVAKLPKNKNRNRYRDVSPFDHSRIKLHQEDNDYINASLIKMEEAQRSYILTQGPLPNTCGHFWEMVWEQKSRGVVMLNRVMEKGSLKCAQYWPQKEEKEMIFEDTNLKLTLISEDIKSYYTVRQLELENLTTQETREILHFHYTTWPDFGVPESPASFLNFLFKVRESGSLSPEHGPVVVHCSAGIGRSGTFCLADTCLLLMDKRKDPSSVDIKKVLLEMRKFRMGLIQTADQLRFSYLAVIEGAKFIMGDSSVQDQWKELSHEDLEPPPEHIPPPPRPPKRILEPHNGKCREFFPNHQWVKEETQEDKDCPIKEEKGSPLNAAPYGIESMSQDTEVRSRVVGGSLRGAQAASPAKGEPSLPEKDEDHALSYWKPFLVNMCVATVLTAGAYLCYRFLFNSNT

[2] = molecular target: T1, Tyrosine-protein phosphatase non-receptor type 1; test: Non-competitive inhibition of human recombinant PTP1B using p-nitrophenyl phosphate as substrate by spectrophotometry based Lineweaver-Burk plot
[3] = molecular target: T1, Tyrosine-protein phosphatase non-receptor type 1; test: Competitive inhibition of human recombinant PTP1B using p-nitrophenyl phosphate as substrate by spectrophotometry based Lineweaver-Burk plot

For `CC(C)=CCc1c2c(c(O)c3c(=O)c(-c4ccc(O)c(O)c4)coc13)C=CC(C)(C)O2` [AURICULASIN], the IC50 [1] was 3.6 µM and the Ki [2] was 4.4 µM.
For `CC(C)=CCc1c(O)c(CC=C(C)C)c2occ(-c3ccc(O)cc3)c(=O)c2c1O`, the IC50 [1] was 9.3 µM and the Ki [2] was 9.6 µM.
`COc1cc(-c2coc3c(CC=C(C)C)c(O)c(CC=C(C)C)c(O)c3c2=O)ccc1O` [FLEMINGSIN] was tested, and the IC50 [1] was 17.4 µM and the Ki [2] was 19.2 µM.
`COc1ccc(CC/C(O)=C2\C(=O)C(CC=C(C)C)=C3OC(C)(C)C=CC3(CC=C(C)C)C2=O)cc1O` (stereo unspecified) gave a Ki [3] of 12.3 µM and an IC50 [1] of 20.2 µM.
With `CC(C)=CCc1c2c(c3occ(-c4ccc(O)cc4)c(=O)c3c1O)C=CC(C)(C)O2` [OSAJIN] the IC50 [1] was 23.6 µM and the Ki [2] was 29.9 µM.
With `COc1ccc(CCC(=O)C2=C(O)C(CC=C(C)C)=C3OC(C)(C)C=CC3(CC=C(C)C)C2=O)cc1O` (stereo unspecified) the Ki [3] was 17.6 µM and the IC50 [1] was 29.4 µM.
Compound `CC(C)=CCc1c(O)c(CC=C(C)C)c2occ(-c3ccc(O)c(O)c3)c(=O)c2c1O` has an IC50 [1] of 2.4 µM and a Ki [2] of 2.5 µM.
Work on `COc1ccc(CCC(=O)C2=C(O)C(CC=C(C)C)=C3OC(C)(C)C=CC3(CC=C(C)C)C2=O)cc1` (stereo unspecified) yielded a Ki [3] of 3.4 µM and an IC50 [1] of 6.5 µM.
